From patent US6451850B1, “Bio-chemical germanium complexes with high therapeutic efficiency and wide application spectrum” (priority 2001, dated 2002)
Like-named read-outs stand apart in the source and are kept apart here.

Procedure: Water solutions or suspensions of the complexes under investigation have been injected intraperitoneally 30÷60 min. before beginning of the experiment. Animals from the control group got equal amounts of physiological salt solution. High altitude hypoxia was made in special air tight chambers, in which a lift of the animals up to the altitude 10,000 m has been imitated by pumping out of air. A criterion of validity for the complexes was increase of mice life length and survivability of these.
Interferon inducing activity of the complexes has been studied with various methods, including the study with native leukocytes of human donor blood.
Antiinflammatory effect has been studied for animals according to the method by Ju. Strel'nikov. Experiments have been carried out with white mice of mass 20 g. Aseptic inflammation was caused by injection of 0.1 ml of 2.5% formalin solution into thigh thickness of an animal's paw. A compound under investigation was injected into the stomach in the dose equimolecular to 20 mg/kg of indometacin two hours before the injection of formalin. Distinction of the edema was estimated by increase of a mass of inflamed and uninflammed paws in experimental groups of animals compared to control ones. […] Simultaneously antiinflammatory activity of indometacin was studied for comparison.

| Structure (SMILES) | Expansion of Effect Spectrum for the Complex Medicament (Table 5) | Expansion of Effect Spectrum for the Complex Medicament (Table 4) |
| --- | --- | --- |
| CN(C)CCCN1c2ccccc2Sc2ccc(Cl)cc21.O=C1CN2CC[O][Ge]([C]34CC5CC(CC(C5)C3)C4)([O]1)[O]C(=O)C2 | - . - | – |
| CN(C)CCC=C1c2ccccc2Sc2ccc(Cl)cc21.C[CH2][Ge]12[O]CCN(CC(=O)[O]1)CC(=O)[O]2 | - . - | – |
| O=C1CN2CC[O][Ge]([C]34CC5CC(CC(C5)C3)C4)([O]1)[O]C(=O)C2.O=C1NC(=O)C(c2ccccc2)(c2ccccc2)N1 | - . - | – |
| CCC1(c2ccccc2)C(=O)NCNC1=O.O=C1CN2CC[O][Ge]([C]34CC5CC(CC(C5)C3)C4)([O]1)[O]C(=O)C2 | - . - | – |
| N[C@@H](Cc1ccc(O)c(O)c1)C(=O)O.O=C1CN2CC[O][Ge]([C]34CC5CC(CC(C5)C3)C4)([O]1)[O]C(=O)C2 | - . - | – |
| CN1CCN(CCCN2c3ccccc3Sc3ccc(Cl)cc32)CC1.[CH3][Ge]12[O]CCN(CC(=O)[O]1)CC(=O)[O]2 | - . - | – |
| NC12CC3CC(CC(C3)C1)C2.[CH3][Ge]12[O]CCN(CC(=O)[O]1)CC(=O)[O]2 | – | - . - |
| O=C1CN=C(c2ccccc2Cl)c2cc(Br)ccc2N1.[CH3][Ge]12[O]C(=O)CN(CC(=O)[O]1)CC(=O)[O]2 | - . - | – |
| O=C1CN2CC[O][Ge]([C]34CC5CC(CC(C5)C3)C4)([O]CC2)[O]1.O=C1CN=C(c2ccccc2Cl)c2cc(Br)ccc2N1 | - . - | – |
| CCC1(c2ccccc2)C(=O)NC(=O)NC1=O.O=C1CN2CC[O][Ge]([C]34CC5CC(CC(C5)C3)C4)([O]1)[O]C(=O)C2 | - . - | – |
| Cc1cn([C@H]2C[C@H](N=[N+]=[N-])[C@@H](CO)O2)c(=O)[nH]c1=O.[CH3][Ge]12[O]CCN(CC(=O)[O]1)CC(=O)[O]2 | – | - . - |
| CN(C)CCCN1c2ccccc2Sc2ccc(Cl)cc21.[OH][Ge]12[O]CCN(CC[O]1)CC[O]2 [Aminazinum OGC (R = OH)] | - . - | – |
| CN(C)CCCN1c2ccccc2Sc2ccc(Cl)cc21.[SH][Ge]12[O]CCN(CC[O]1)CC[O]2 [Aminazinum OGC (R = SH)] | - . - | – |
| CN(C)CCC=C1c2ccccc2Sc2ccc(Cl)cc21.[OH][Ge]12[O]CCN(CC[O]1)CC[O]2 [Chlorprotexenum OGC (R = OH)] | - . - | – |
| CN(C)CCC=C1c2ccccc2Sc2ccc(Cl)cc21.[SH][Ge]12[O]CCN(CC[O]1)CC[O]2 [Chlorprotexenum OGC (R = SH)] | - . - | – |
| CN1C(=O)CN=C(c2ccccc2)c2cc(Cl)ccc21.[OH][Ge]12[O]CCN(CC[O]1)CC[O]2 [Diazepam OGC (R = OH)] | - . - | – |
| CN1C(=O)CN=C(c2ccccc2)c2cc(Cl)ccc21.[SH][Ge]12[O]CCN(CC[O]1)CC[O]2 [Diazepam OGC (R = SH)] | - . - | – |
| [CH3][Ge]12[O]CCN(CC(=O)[O]1)CC(=O)[O]2.c1ccc(Cc2nc3ccccc3[nH]2)cc1 [Dibasolum OGC (R = CH3, R1R2 = R5R6 = O)] | – | - . - |
| [OH][Ge]12[O]CCN(CC[O]1)CC[O]2.c1ccc(Cc2nc3ccccc3[nH]2)cc1 [Dibasolum OGC (R = OH)] | – | - . - |
| [SH][Ge]12[O]CCN(CC[O]1)CC[O]2.c1ccc(Cc2nc3ccccc3[nH]2)cc1 [Dibasolum OGC (R = SH)] | – | - . - |
| O=C1NC(=O)C(c2ccccc2)(c2ccccc2)N1.[OH][Ge]12[O]CCN(CC[O]1)CC[O]2 [Dipheninum OGC (R = OH)] | - . - | – |
| CCC1(c2ccccc2)C(=O)NCNC1=O.[OH][Ge]12[O]CCN(CC[O]1)CC[O]2 [Hexamidinum OGC (R = OH)] | - . - | – |
| C[CH2][Ge]12[O]CCN(CC[O]1)CC(=O)[O]2.O=c1[nH]c(=O)n([C@H]2C[C@H](O)[C@@H](CO)O2)cc1I [Idoxuridine OGC (R = C2H5, R1,R2 = O)] | – | - . - |
| O=c1[nH]c(=O)n(C2CC(O)C(CO)O2)cc1I.[OH][Ge]12[O]CCN(CC[O]1)CC[O]2 (stereo not shown) [Idoxuridine OGC (R = OH)] | – | - . - |

| Structure (SMILES) | Expansion of Effect Spectrum for the Complex Medicament (Table 5) | Expansion of Effect Spectrum for the Complex Medicament (Table 4) |
| --- | --- | --- |
| O=c1[nH]c(=O)n([C@H]2C[C@H](O)[C@@H](CO)O2)cc1I.[SH][Ge]12[O]CCN(CC[O]1)CC[O]2 [Idoxuridine OGC (R = SH)] | – | - . - |
| N[C@@H](Cc1ccc(O)c(O)c1)C(=O)O.[OH][Ge]12[O]CCN(CC[O]1)CC[O]2 [Levodopa OGC (R = OH)] | - . - | – |
| CN1CCN(CCCN2c3ccccc3Sc3ccc(Cl)cc32)CC1.[OH][Ge]12[O]CCN(CC[O]1)CC[O]2 [Meterazinum OGC (R = OH)] | - . - | – |
| CN1CCN(CCCN2c3ccccc3Sc3ccc(Cl)cc32)CC1.[SH][Ge]12[O]CCN(CC[O]1)CC[O]2 [Meterazinum OGC (R = SH)] | - . - | – |
| CN1CCN=C(c2ccccc2)c2cc(Cl)ccc21.[CH3][Ge]12[O]CCN(CC(=O)[O]1)CC(=O)[O]2 [Mezapamun OGC (R = CH3) R1R2 = R5R6 = O)] | - . - | – |
| CN1CCN=C(c2ccccc2)c2cc(Cl)ccc21.[CH3][Ge]([CH3])([CH3])[O][Ge]12[O]CCN(CC[O]1)CC[O]2 [Mezapamun OGC (R = OGeMe3)] | - . - | – |
| CN1CCN=C(c2ccccc2)c2cc(Cl)ccc21.[OH][Ge]12[O]CCN(CC[O]1)CC[O]2 [Mezapamun OGC (R = OH)] | - . - | – |
| CN1CCN=C(c2ccccc2)c2cc(Cl)ccc21.C[Si](C)(C)[O][Ge]12[O]CCN(CC[O]1)CC[O]2 [Mezapamun OGC (R = OSiMe3)] | - . - | – |
| CN1CCN=C(c2ccccc2)c2cc(Cl)ccc21.O=C1CN2CC[O][Ge]([C]34CC5CC(CC(C5)C3)C4)([O]CC2)[O]1 [Mezapamun OGC (R = adamantyl, R1R2 = O)] | - . - | – |
| NC12CC3CC(CC(C3)C1)C2.[OH][Ge]12[O]CCN(CC[O]1)CC[O]2 [Midantanum OGC (R = OH)] | - . - | - . - |
| NC12CC3CC(CC(C3)C1)C2.[SH][Ge]12[O]CCN(CC[O]1)CC[O]2 [Midantanum OGC (R = SH)] | - . - | - . - |
| O=C1CN=C(c2ccccc2Cl)c2cc(Br)ccc2N1.[OH][Ge]12[O]CCN(CC[O]1)CC[O]2 [Phenazepamum OGC (R = OH)] | - . - | – |
| CCC1(c2ccccc2)C(=O)NC(=O)NC1=O.[SH][Ge]12[O]CCN(CC[O]1)CC[O]2 [Phenobarbitalum OGC(R = SH)] | - . - | – |
| CC(N)C12CC3CC(CC(C3)C1)C2.O=C1CN2CC[O][Ge]([OH])([O]CC2)[O]1 (stereo not shown) [Remantadinum OGC (R = OH, R1R2 = O)] | – | - . - |
| CC(N)C12CC3CC(CC(C3)C1)C2.[SH][Ge]12[O]CCN(CC[O]1)CC[O]2 (stereo not shown) [Remantadinum OGC (R = SH)] | – | - . - |
| Nc1ncnc2c1ncn2C1OC(CO)C(O)C1O.O=C1CN2CC[O][Ge]([OH])([O]CC2)[O]1 (stereo not shown) [Vidarabinum OGC (R = OH, R1,R2 = O)] | – | - . - |
| Nc1ncnc2c1ncn2C1OC(CO)C(O)C1O.[OH][Ge]12[O]CCN(CC[O]1)CC[O]2 (stereo not shown) [Vidarabinum OGC(R = OH)] | – | - . - |
| CC1CN2CC[O][Ge]([OH])([O]CC2)[O]1.Nc1ncnc2c1ncn2C1OC(CO)C(O)C1O (stereo not shown) [Vidarabinum OGC(R = OH, R1 = CH3)] | – | - . - |
| C[CH2][Ge]12[O]CCN(CC[O]1)CC(=O)[O]2.Nc1nc2c(ncn2COCCO)c(=O)[nH]1 [Virolex OGC (R = C2H5, R1, R2 = O)] | – | - . - |
| Cc1cn([C@H]2C[C@H](N=[N+]=[N-])[C@@H](CO)O2)c(=O)[nH]c1=O.[CH3][Ge]([CH3])([CH3])[O][Ge]12[O]CCN(CC[O]1)CC[O]2 [Zidovudine OGC (R = OGeMe3)] | – | - . - |
| Cc1cn([C@H]2C[C@H](N=[N+]=[N-])[C@@H](CO)O2)c(=O)[nH]c1=O.[OH][Ge]12[O]CCN(CC[O]1)CC[O]2 [Zidovudine OGC (R = OH)] | – | - . - |
| C[Si](C)(C)[O][Ge]12[O]CCN(CC[O]1)CC[O]2.Cc1cn([C@H]2C[C@H](N=[N+]=[N-])[C@@H](CO)O2)c(=O)[nH]c1=O [Zidovudine OGC (R = OSiMe3)] | – | - . - |
| Cc1cn([C@H]2C[C@H](N=[N+]=[N-])[C@@H](CO)O2)c(=O)[nH]c1=O.[SH][Ge]12[O]CCN(CC[O]1)CC[O]2 [Zidovudine OGC (R = SH)] | – | - . - |
